Source: patent publication US20240199546A1, “INHIBITORS OF SOLUTE CARRIER FAMILY 6A MEMBER 19 (SLC6A19) AND METHODS OF USE THEREOF” (Maze Therapeutics, Inc., priority 2022, published 2024)

Tests used:
human SLC6A19 and TMEM27 [1] = target: T1, human SLC6A19 and TMEM27 (Homo sapiens, UniProt Q695T7); experiment: Radiolabelled (3H) leucine uptake in CHO cells with doxycycline-inducible expression of human SLC6A19 and TMEM27 (Example B-1); assay type: cell-based; details: CHO cells with doxycycline-inducible expression of human SLC6A19 and TMEM27, read-out: SLC6A19_Radioligand Uptake Assay IC50
T1 construct: expressed in transfected cells
T1 sequence (Q695T7 1-634): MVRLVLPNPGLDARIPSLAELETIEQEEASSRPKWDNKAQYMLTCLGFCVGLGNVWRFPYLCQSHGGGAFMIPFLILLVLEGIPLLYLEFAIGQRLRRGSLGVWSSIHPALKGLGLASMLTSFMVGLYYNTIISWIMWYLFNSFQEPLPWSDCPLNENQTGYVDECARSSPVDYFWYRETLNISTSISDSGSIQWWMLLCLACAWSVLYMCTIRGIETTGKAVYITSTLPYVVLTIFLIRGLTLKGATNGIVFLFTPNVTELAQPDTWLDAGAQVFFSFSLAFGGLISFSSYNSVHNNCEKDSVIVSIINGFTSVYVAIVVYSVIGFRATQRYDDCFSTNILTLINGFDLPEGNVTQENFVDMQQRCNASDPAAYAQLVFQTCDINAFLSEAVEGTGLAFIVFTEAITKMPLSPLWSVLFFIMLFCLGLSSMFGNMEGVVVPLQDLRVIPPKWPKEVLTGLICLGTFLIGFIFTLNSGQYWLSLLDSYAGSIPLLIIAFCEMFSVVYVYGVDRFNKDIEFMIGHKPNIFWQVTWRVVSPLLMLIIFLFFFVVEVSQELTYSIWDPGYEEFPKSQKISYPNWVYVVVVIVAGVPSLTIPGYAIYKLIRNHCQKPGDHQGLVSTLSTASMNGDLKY
T1 sequence (Q9HBJ8 15-222 partner): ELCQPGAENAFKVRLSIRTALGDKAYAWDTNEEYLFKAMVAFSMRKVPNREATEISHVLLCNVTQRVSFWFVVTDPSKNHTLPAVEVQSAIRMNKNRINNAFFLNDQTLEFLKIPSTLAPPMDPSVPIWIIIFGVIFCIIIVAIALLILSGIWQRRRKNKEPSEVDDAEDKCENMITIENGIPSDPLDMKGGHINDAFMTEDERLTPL
In short: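 CHO cells were induced with doxycycline for 18 h at 37 °C, washed in HBSS, then exposed to compounds for 1 h: 8-point, 3-fold dilutions in duplicate, 0.5% DMSO final. Uptake measured by scintillation counting after 2 h shaking. Activity normalized with positive control as 0% and DMSO as 100%.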

human SLC6A19 and TMEM27 [2] = target: T1, human SLC6A19 and TMEM27; experiment: 13C6,15N-isoleucine uptake in CHO cells with doxycycline-inducible expression of human SLC6A19 and TMEM27, RapidFire mass spectrometry (Example B-2); assay type: cell-based; details: read-out: SLC6A19_RapidFire Uptake Assay IC50
In short: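 CHO cells induced overnight with doxycycline to express human SLC6A19 plus TMEM27; 20 min preincubation with compound (10-point 2-fold series, duplicate) at 37 °C in HEPES buffer pH 7.2, then 20 min with 13C6,15N-isoleucine. Intracellular label quantified by RapidFire MS against 13C-leucine standard; positive control defined 100% inhibition.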

Structure (SMILES)	IC50 (human SLC6A19 and TMEM27 [1]) [nM]	IC50 (human SLC6A19 and TMEM27 [2]) [nM]
CC1(C(=O)NCc2cc3cc(F)c(OCc4ccon4)cc3[nH]2)CC1 [Compound 6, N-((5-fluoro-6-(isoxazol-3-ylmethoxy)-1H-indol-2-yl)methyl)-1-methylcyclopropane-1-carboxamide]	175	148
CC1(C(=O)NCc2cc3cc(Cl)c(OCc4cnsc4)cc3[nH]2)CC1 [Compound 69, N-((5-chloro-6-(isothiazol-4-ylmethoxy)-1H-indol-2-yl)methyl)-1-methylcyclopropane-1-carboxamide]	148	78
O=C(NCc1cc2cc(OC(F)(F)F)c(CCc3cscn3)cc2[nH]1)N1CCCC1 [Compound 419, N-((6-(2-(thiazol-4-yl)ethyl)-5-(trifluoromethoxy)-1H-indol-2-yl)methyl)pyrrolidine-1-carboxamide]	435	159
CC1CN(C(=O)NCc2cc3cc(F)c(OCc4ccon4)cc3[nH]2)C1 [Compound 389, N-((5-fluoro-6-(isoxazol-3-ylmethoxy)-1H-indol-2-yl)methyl)-3-methylazetidine-1-carboxamide]	353	485
CC1(C(=O)NCc2cc3cc(Cl)c(OCc4cscn4)c(Cl)c3[nH]2)CC1 [Compound 344, N-((5,7-dichloro-6-(thiazol-4-ylmethoxy)-1H-indol-2-yl)methyl)-1-methylcyclopropane-1-carboxamide]	3910	> 50000
CC1CCN(C(=O)NCc2cc3ccc(OCc4ccon4)cc3[nH]2)C1 (stereo not shown) [Compound 121, N-((6-(isoxazol-3-ylmethoxy)-1H-indol-2-yl)methyl)-3-methylpyrrolidine-1-carboxamide]	282	590
CC1(C(=O)NCc2cc3cc(Cl)c(CCc4ccon4)cc3[nH]2)CC1 [Compound 150, N-((5-chloro-6-(2-(isoxazol-3-yl)ethyl)-1H-indol-2-yl)methyl)-1-methylcyclopropane-1-carboxamide]	120	36
Cc1cc(COc2cc3[nH]c(CNC(=O)C4(C(F)(F)F)CC4)cc3cc2Cl)no1 [Compound 125, N-((5-chloro-6-((5-methylisoxazol-3-yl)methoxy)-1H-indol-2-yl)methyl)-1-(trifluoromethyl)cyclopropane-1-carboxamide]	198	145
O=C(NCc1cc2cc(F)c(CCc3ccon3)cc2[nH]1)N1CCC1 [Compound 602, N-((5-fluoro-6-(2-(isoxazol-3-yl)ethyl)-1H-indol-2-yl)methyl)azetidine-1-carboxamide]	820	609

Further lines, results first:

IC50 (human SLC6A19 and TMEM27 [1]) [nM]	IC50 (human SLC6A19 and TMEM27 [2]) [nM]	Structure (SMILES)
509	632	Cc1cc2cc(CNC(=O)N3CCC3)[nH]c2cc1OCc1ccon1 [Compound 532, N-((6-(isoxazol-3-ylmethoxy)-5-methyl-1H-indol-2-yl)methyl)azetidine-1-carboxamide]
342	534	O=C(NCc1cc2cc(F)c(OCc3ccno3)cc2[nH]1)N1CCC1 [Compound 401, N-((5-fluoro-6-(isoxazol-5-ylmethoxy)-1H-indol-2-yl)methyl)azetidine-1-carboxamide]
407	519	O=C(NCc1cc2cc(Cl)c(OCc3cocn3)cc2[nH]1)N1CCC1 [Compound 403, N-((5-chloro-6-(oxazol-4-ylmethoxy)-1H-indol-2-yl)methyl)azetidine-1-carboxamide]
100	50	Cc1cc(COc2cc3[nH]c(CNC(=O)N4CCCC4)cc3cc2Cl)on1 [Compound 83, N-((5-chloro-6-((3-methylisoxazol-5-yl)methoxy)-1H-indol-2-yl)methyl)pyrrolidine-1-carboxamide]
82	45	Cc1cc(COc2cc3[nH]c(CNC(=O)C4CC4)cc3cc2Cl)no1 [Compound 133, N-((5-chloro-6-((5-methylisoxazol-3-yl)methoxy)-1H-indol-2-yl)methyl)cyclopropanecarboxamide]
70.9	26.8	CCC(=O)NCc1cc2cc(Cl)c(OCc3cc(C)no3)cc2[nH]1 [Compound 438, N-((5-chloro-6-((3-methylisoxazol-5-yl)methoxy)-1H-indol-2-yl)methyl)propionamide]
276	239	O=C(NCc1cc2cc(Cl)c(NCc3ccon3)cc2[nH]1)N1CCCC1 [Compound 413, N-((5-chloro-6-((isoxazol-3-ylmethyl)amino)-1H-indol-2-yl)methyl)pyrrolidine-1-carboxamide]
150	166	O=C(NCc1cc2cc(Cl)c(OCc3cscn3)cc2[nH]1)N1CCC1 [Compound 81, N-((5-chloro-6-(thiazol-4-ylmethoxy)-1H-indol-2-yl)methyl)azetidine-1-carboxamide]
